Measurements taken from paper PMC12595484, “Optimizing multifunctional fluorescent ligands for intracellular labeling” (Proceedings of the National Academy of Sciences of the …, 2025).

System: U2OS cells expressing HaloTag fusion proteins
Test: Live-cell labeling of HaloTag fusions at different subcellular locations, Airyscan microscopy
Type: cell-based
Details: 100 nM, 1 h
Description: Fig. 4. Evaluation of live-cell labeling of biotin–rhodamine–HaloTag ligands 13HTL–16HTL. Airyscan fluorescence microscopy images of U2OS cells expressing HaloTag fusion proteins at different subcellular locations, incubated with 100 nM 13HTL–16HTL for 1 h followed by fixation, counterstaining with Hoechst 33342 (gray) and imaging. Columns indicate different HaloTag fusion proteins: (A–D) Cell-surface-localized HaloTag–PDGFR; (E–H) Outer mitochondrial membrane-localized HaloTag–TOMM20; (I–L) Endoplasmic reticulum membrane-localized HaloTag–Sec61β; (M–P) Nucleus-localized HaloTag–histone H2B. Rows indicate different ligands: (A,E,I, and M) biotin–JF549–HaloTag ligand (13HTL; yellow); (B, F, J, and N) biotin–JF608–HaloTag ligand (14HTL; red); (C, G, K, and O) biotin–JF646–HaloTag ligand (15HTL; magenta); (D, H, L, and P) biotin–JF635–HaloTag ligand (16HTL; magenta). […]
indicated in the product information12 and from a previous publication.13 For labeling with biotin-JF-HaloTag ligands 13HTL–16HTL, cells were incubated with 100 nM or 1 µM ligand for 0.5–2 h at 37 °C. […] For quantitation of labeling intensity, ROIs were drawn surrounding individual HEK cells, and the average fluorescence ratio (JF/msGFP) from multiple cells in each condition was measured; no background subtraction was necessary.
U2OS cell culture, labeling, and fluorescence microscopy. […]

## O=C(CCCCC1SCC2NC(=O)NC21)NCCOCCOCCNC(=O)C1C[N+](=c2ccc3c(-c4cc(C(=O)NCCOCCOCCCCCCCl)ccc4C(=O)[O-])c4ccc(N5CCC5)cc4oc-3c2)C1 (stereo not shown) [13HTL, biotin–JF549–HaloTag ligand]
  labeling of HaloTag fusions (PDGFR, TOMM20, Sec61β, histone H2B): low intracellular signals, only labeling the cell-surface-localized PDGFR–HaloTag fusion
